From patent US9738932B2, “Biomarkers for cardiovascular side-effects induced by cox-2 inhibitory compounds” (FIRALIS SAS, priority 2005, dated 2017)

How the values were obtained:
[1] = test system: mRNA expression in cardiovascular tissues; test: Affymetrix GeneChip mRNA expression profiling of monkey tissues (iliac vein, pulmonary vein, aorta, carotid artery, heart) after two-week oral-gavage treatment; details: iliac vein; group average (Vioxx without A60055)
[2] = test system: mRNA expression in cardiovascular tissues; details: cynomolgus monkey, in vivo

## Cc1ccc(-c2cc(C(F)(F)F)nn2-c2ccc(S(N)(=O)=O)cc2)cc1 [Celebrex]
[1]
  ACE (209749_s_at) mRNA expression, Avg fold changes vs control: 0.8 fold
  B2M (216231_s_at) mRNA expression, Avg fold changes vs control: 1.3 fold
  BCL6 (215990_s_at) mRNA expression, Avg fold changes vs control: 0.9 fold
  BTN2A2 (205298_s_at) mRNA expression, Avg fold changes vs control: 1.2 fold
  CCR1 (205098_at) mRNA expression, Avg fold changes vs control: 0.9 fold
  CD2 (205831_at) mRNA expression, Avg fold changes vs control: 1.5 fold
  CD48 (204118_at) mRNA expression, Avg fold changes vs control: 1.7 fold
  CD53 (203416_at) mRNA expression, Avg fold changes vs control: 2.3 fold
  CDC2 (210559_s_at) mRNA expression, Avg fold changes vs control: 1.3 fold
  CYBB (203922_s_at) mRNA expression, Avg fold changes vs control: 1.7 fold
  EMP3 (203729_at) mRNA expression, Avg fold changes vs control: 0.9 fold
  FCER1G (204232_at) mRNA expression, Avg fold changes vs control: 1.3 fold
  FCGR2A (203561_at) mRNA expression, Avg fold changes vs control: 1.4 fold
  FCGRT (218831_s_at) mRNA expression, Avg fold changes vs control: 1.0 fold
  FKBP11 (219117_s_at) mRNA expression, Avg fold changes vs control: 0.8 fold
  FKBP11 (219118_at) mRNA expression, Avg fold changes vs control: 1.0 fold
  GP6 (220336_s_at) mRNA expression, Avg fold changes vs control: 1.1 fold
  HCLS1 (202957_at) mRNA expression, Avg fold changes vs control: 1.5 fold
  HEM1 (209734_at) mRNA expression, Avg fold changes vs control: 1.5 fold
  HLA-A (210514_x_at) mRNA expression, Avg fold changes vs control: 1.1 fold
  HLA-A (213932_x_at) mRNA expression, Avg fold changes vs control: 1.3 fold
  HLA-C (211799_x_at) mRNA expression, Avg fold changes vs control: 1.0 fold
  HLA-E (200904_at) mRNA expression, Avg fold changes vs control: 1.2 fold
  HLA-F (221978_at) mRNA expression, Avg fold changes vs control: 1.2 fold
  ICAM1 (202637_s_at) mRNA expression, Avg fold changes vs control: 0.9 fold
  IL13RA1 (210904_s_at) mRNA expression, Avg fold changes vs control: 0.9 fold
  PIK3CD (203879_at) mRNA expression, Avg fold changes vs control: 1.7 fold
  PRKCBP1 (209048_s_at) mRNA expression, Avg fold changes vs control: 1.2 fold
  PRKCBP1 (209049_s_at) mRNA expression, Avg fold changes vs control: 1.2 fold
  PTPN7 (204852_s_at) mRNA expression, Avg fold changes vs control: 2.0 fold
  SIGIRR (52940_at) mRNA expression, Avg fold changes vs control: 1.2 fold
  STAT1 (200887_s_at) mRNA expression, Avg fold changes vs control: 1.1 fold
  STAT1 (AFFX-HUMISGF3A/M97935_3_at) mRNA expression, Avg fold changes vs control: 1.1 fold
  STAT3 (208992_s_at) mRNA expression, Avg fold changes vs control: 1.0 fold
  TCIRG1 (204158_s_at) mRNA expression, Avg fold changes vs control: 0.9 fold
  THY1 (213869_x_at) mRNA expression, Avg fold changes vs control: 0.8 fold
  TMPO (209753_s_at) mRNA expression, Avg fold changes vs control: 0.9 fold
  TMSB10 (217733_s_at) mRNA expression, Avg fold changes vs control: 1.1 fold
  TNFRSF21 (218856_at) mRNA expression, Avg fold changes vs control: 1.5 fold
  TRB@ (210915_x_at) mRNA expression, Avg fold changes vs control: 2.5 fold
  TRB@ (213193_x_at) mRNA expression, Avg fold changes vs control: 2.4 fold
[2]
  AIF1 (209901_x_at) avg fold change vs control: 1.5 fold
  AIF1 (213095_x_at) avg fold change vs control: 2.0 fold
  B2M (201891_s_at) avg fold change vs control: 1.3 fold
  BTN3A1 (207485_x_at) avg fold change vs control: 1.7 fold
  BTN3A3 (204821_at) avg fold change vs control: 1.6 fold
  C1S (208747_s_at) avg fold change vs control: 1.0 fold
  C2 (203052_at) avg fold change vs control: 1.1 fold
  C4A (208451_s_at) avg fold change vs control: 1.6 fold
  CASP1 (211367_s_at) avg fold change vs control: 1.2 fold
  CCL3 (205114_s_at) avg fold change vs control: 1.3 fold
  CCL5 (1405_i_at) avg fold change vs control: 0.9 fold
  CCL19 (210072_at) avg fold change vs control: 2.0 fold
  CCNB2 (202705_at) avg fold change vs control: 1.2 fold
  CD74 (209619_at) avg fold change vs control: 1.3 fold
  CX3CR1 (205898_at) avg fold change vs control: 1.1 fold
  DUSP6 (208893_s_at) avg fold change vs control: 1.2 fold
  ECGF1 (204858_s_at) avg fold change vs control: 1.1 fold
  FCGR3A (204006_s_at) avg fold change vs control: 1.3 fold
  GZMB (210164_at) avg fold change vs control: 0.9 fold
  HLA-DMA (217478_s_at) avg fold change vs control: 1.4 fold
  HLA-DQB1 (211656_x_at) avg fold change vs control: 1.6 fold
  HLA-DRB1 (215193_x_at) avg fold change vs control: 1.7 fold
  IRF1 (202531_at) avg fold change vs control: 1.1 fold
  IRF7 (208436_s_at) avg fold change vs control: 2.1 fold
  ISGF3G (203882_at) avg fold change vs control: 1.0 fold
  LAIR1 (208071_s_at) avg fold change vs control: 3.6 fold
  LRMP (204674_at) avg fold change vs control: 3.8 fold
  PLA2G4C (209785_s_at) avg fold change vs control: 1.4 fold
  TNFSF10 (202687_s_at) avg fold change vs control: 1.3 fold
  TNFSF10 (202688_at) avg fold change vs control: 1.3 fold
[2]; 2 weeks
  209813_x_at avg fold change vs control: 1.2 fold
  BCL3 (204908_s_at) avg fold change vs control: 1.0 fold
  BTN3A3 (38241_at) avg fold change vs control: 1.1 fold
  BTN3A3 (204820_s_at) avg fold change vs control: 1.3 fold
  C1QA (218232_at) avg fold change vs control: 1.5 fold
  C1QB (202953_at) avg fold change vs control: 1.1 fold
  C1R (212067_s_at) avg fold change vs control: 0.9 fold
  CASP1 (209970_x_at) avg fold change vs control: 1.2 fold
  CCL2 (216598_s_at) avg fold change vs control: 2.3 fold
  CCL8 (214038_at) avg fold change vs control: 1.3 fold
  CCL18 (209924_at) avg fold change vs control: 1.5 fold
  CD3D (213539_at) avg fold change vs control: 3.2 fold
  CD8A (205758_at) avg fold change vs control: 1.0 fold
  CD14 (201743_at) avg fold change vs control: 1.1 fold
  CLU (208791_at) avg fold change vs control: 0.8 fold
  CMAH (210571_s_at) avg fold change vs control: 1.0 fold
  CTSC (201487_at) avg fold change vs control: 1.3 fold
  CTSK (202450_s_at) avg fold change vs control: 1.0 fold
  CTSS (202902_s_at) avg fold change vs control: 1.2 fold
  CXCL9 (203915_at) avg fold change vs control: 1.4 fold
  CXCL10 (204533_at) avg fold change vs control: 1.1 fold
  CXCL11 (210163_at) avg fold change vs control: 3.7 fold
  CXCL11 (211122_s_at) avg fold change vs control: 1.6 fold
  CXCL12 (209687_at) avg fold change vs control: 1.1 fold
  CYBA (203028_s_at) avg fold change vs control: 1.2 fold
  CYBB (203923_s_at) avg fold change vs control: 1.2 fold
